{"source": "PubChem BioAssay (NCI)", "experiment_in_all_cases": "NCI-60 cell line screen, 384-well format", "key": {"EKVX NSCLC": {"tested_on": "EKVX NSCLC"}, "RPMI-8226 leukemia": {"tested_on": "RPMI-8226 leukemia"}, "OVCAR-3 ovarian": {"tested_on": "OVCAR-3 ovarian"}, "KM12 colon": {"tested_on": "KM12 colon"}, "NCI-H522 lung": {"tested_on": "NCI-H522 lung"}, "786-0 renal": {"tested_on": "786-0 renal"}, "NCI-H23 lung": {"tested_on": "NCI-H23 lung"}, "MDA-MB-468 breast": {"tested_on": "MDA-MB-468 breast"}, "SK-MEL-5 melanoma": {"tested_on": "SK-MEL-5 melanoma"}, "MDA-MB-231 breast": {"tested_on": "MDA-MB-231 breast"}, "HOP-62 NSCLC": {"tested_on": "HOP-62 NSCLC"}, "SNB-75 CNS": {"tested_on": "SNB-75 CNS"}, "HOP-92 NSCLC": {"tested_on": "HOP-92 NSCLC"}, "SNB-19 CNS": {"tested_on": "SNB-19 CNS"}, "OVCAR-4 ovarian": {"tested_on": "OVCAR-4 ovarian"}, "NCI-H226 lung": {"tested_on": "NCI-H226 lung"}, "PC-3 prostate": {"tested_on": "PC-3 prostate"}, "A549 NSCLC": {"tested_on": "A549 NSCLC"}, "SF-268 CNS": {"tested_on": "SF-268 CNS"}, "NCI-H460 NSCLC": {"tested_on": "NCI-H460 NSCLC"}, "CCRF-CEM leukemia": {"tested_on": "CCRF-CEM leukemia"}, "MCF7 breast": {"tested_on": "MCF7 breast"}, "NCI/ADR-RES ovarian": {"tested_on": "NCI/ADR-RES ovarian"}, "T-47D breast": {"tested_on": "T-47D breast"}, "HCT-116 colon": {"tested_on": "HCT-116 colon"}, "UACC-257 melanoma": {"tested_on": "UACC-257 melanoma"}, "HL-60(TB) leukemia": {"tested_on": "HL-60(TB) leukemia"}, "HCT-15 colon": {"tested_on": "HCT-15 colon"}, "CAKI-1 renal": {"tested_on": "CAKI-1 renal"}}, "note": "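GI50 marks 50% less growth. At the TGI there is no net growth.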"}
{"smiles": "CC1CCC(n2c3cnccc3c3cnc(Nc4ccc5c(n4)CCN(C(=O)CO)C5)nc32)CC1", "note": "(configuration not stated)", "values": [{"measurement": "TGI", "setting": "EKVX NSCLC", "result": "> 100", "unit": "µM"}, {"measurement": "GI50", "setting": "RPMI-8226 leukemia", "result": 0.253, "unit": "µM"}, {"measurement": "TGI", "setting": "RPMI-8226 leukemia", "result": 1.71, "unit": "µM"}, {"measurement": "GI50", "setting": "OVCAR-3 ovarian", "result": 5.68, "unit": "µM"}, {"measurement": "TGI", "setting": "OVCAR-3 ovarian", "result": 12.6, "unit": "µM"}, {"measurement": "GI50", "setting": "KM12 colon", "result": 0.293, "unit": "µM"}, {"measurement": "TGI", "setting": "KM12 colon", "result": 4.05, "unit": "µM"}, {"measurement": "GI50", "setting": "NCI-H522 lung", "result": 6.06, "unit": "µM"}, {"measurement": "TGI", "setting": "NCI-H522 lung", "result": "> 100", "unit": "µM"}, {"measurement": "GI50", "setting": "786-0 renal", "result": 12.4, "unit": "µM"}, {"measurement": "TGI", "setting": "786-0 renal", "result": 66.9, "unit": "µM"}, {"measurement": "GI50", "setting": "NCI-H23 lung", "result": 3.4, "unit": "µM"}, {"measurement": "TGI", "setting": "NCI-H23 lung", "result": "> 100", "unit": "µM"}, {"measurement": "GI50", "setting": "MDA-MB-468 breast", "result": 13.5, "unit": "µM"}, {"measurement": "TGI", "setting": "MDA-MB-468 breast", "result": 57.8, "unit": "µM"}, {"measurement": "GI50", "setting": "SK-MEL-5 melanoma", "result": 2.36, "unit": "µM"}, {"measurement": "TGI", "setting": "SK-MEL-5 melanoma", "result": "> 94.8", "unit": "µM"}, {"measurement": "GI50", "setting": "MDA-MB-231 breast", "result": 2.91, "unit": "µM"}, {"measurement": "TGI", "setting": "MDA-MB-231 breast", "result": 14.4, "unit": "µM"}, {"measurement": "GI50", "setting": "HOP-62 NSCLC", "result": 3.66, "unit": "µM"}, {"measurement": "TGI", "setting": "HOP-62 NSCLC", "result": "> 100", "unit": "µM"}, {"measurement": "GI50", "setting": "SNB-75 CNS", "result": 4.47, "unit": "µM"}, {"measurement": "TGI", "setting": "SNB-75 CNS", "result": "> 20.3", "unit": "µM"}, {"measurement": "GI50", "setting": "HOP-92 NSCLC", "result": 6.32, "unit": "µM"}, {"measurement": "TGI", "setting": "HOP-92 NSCLC", "result": "> 20.6", "unit": "µM"}, {"measurement": "GI50", "setting": "SNB-19 CNS", "result": 7.56, "unit": "µM"}, {"measurement": "TGI", "setting": "SNB-19 CNS", "result": "> 100", "unit": "µM"}, {"measurement": "GI50", "setting": "OVCAR-4 ovarian", "result": 15.1, "unit": "µM"}, {"measurement": "TGI", "setting": "OVCAR-4 ovarian", "result": "> 40", "unit": "µM"}, {"measurement": "GI50", "setting": "NCI-H226 lung", "result": 9.33, "unit": "µM"}, {"measurement": "TGI", "setting": "NCI-H226 lung", "result": "> 100", "unit": "µM"}, {"measurement": "GI50", "setting": "PC-3 prostate", "result": 7.58, "unit": "µM"}, {"measurement": "TGI", "setting": "PC-3 prostate", "result": "> 81.2", "unit": "µM"}, {"measurement": "GI50", "setting": "A549 NSCLC", "result": 2.15, "unit": "µM"}, {"measurement": "TGI", "setting": "A549 NSCLC", "result": "> 100", "unit": "µM"}, {"measurement": "GI50", "setting": "SF-268 CNS", "result": 4.47, "unit": "µM"}, {"measurement": "TGI", "setting": "SF-268 CNS", "result": 15.2, "unit": "µM"}, {"measurement": "GI50", "setting": "NCI-H460 NSCLC", "result": 0.749, "unit": "µM"}, {"measurement": "TGI", "setting": "NCI-H460 NSCLC", "result": 4.74, "unit": "µM"}, {"measurement": "GI50", "setting": "CCRF-CEM leukemia", "result": 0.638, "unit": "µM"}, {"measurement": "TGI", "setting": "CCRF-CEM leukemia", "result": 2.31, "unit": "µM"}, {"measurement": "GI50", "setting": "MCF7 breast", "result": 1.04, "unit": "µM"}, {"measurement": "TGI", "setting": "MCF7 breast", "result": "> 100", "unit": "µM"}, {"measurement": "GI50", "setting": "NCI/ADR-RES ovarian", "result": 13.9, "unit": "µM"}, {"measurement": "TGI", "setting": "NCI/ADR-RES ovarian", "result": "> 100", "unit": "µM"}, {"measurement": "GI50", "setting": "T-47D breast", "result": "> 100", "unit": "µM"}, {"measurement": "TGI", "setting": "T-47D breast", "result": "> 100", "unit": "µM"}, {"measurement": "GI50", "setting": "HCT-116 colon", "result": 1.69, "unit": "µM"}, {"measurement": "TGI", "setting": "HCT-116 colon", "result": 16.2, "unit": "µM"}, {"measurement": "GI50", "setting": "UACC-257 melanoma", "result": "> 100", "unit": "µM"}, {"measurement": "TGI", "setting": "UACC-257 melanoma", "result": "> 100", "unit": "µM"}, {"measurement": "GI50", "setting": "HL-60(TB) leukemia", "result": 0.286, "unit": "µM"}, {"measurement": "TGI", "setting": "HL-60(TB) leukemia", "result": 1.75, "unit": "µM"}, {"measurement": "GI50", "setting": "HCT-15 colon", "result": 0.656, "unit": "µM"}, {"measurement": "TGI", "setting": "HCT-15 colon", "result": "> 100", "unit": "µM"}, {"measurement": "GI50", "setting": "CAKI-1 renal", "result": 1.42, "unit": "µM"}, {"measurement": "TGI", "setting": "CAKI-1 renal", "result": "> 28", "unit": "µM"}]}
